Columns and labels:
[1] = test system: mouse lung fibroblast (L929 cell line); test: Cell viability test (ISO10993-5, MTT assay); format: cell-based; conditions: for cell viability: L929, 24 hours, 37° C.
Text: The 1st example is used as the experimental group to perform the cell viability test. Specifically, according to ISO10993-5 standard method, the mouse lung fibroblast (L929 cell line) is used as the test cell, and the composition of the test culture medium is 90% MEM culture medium, 10% fetal bovine serum (FBS) and additional 1% antibiotic (penicillin-streptomycin). Then, the ethanol with the final concentration of 0.1% is used as the solvent to dissolve the tested plasticizer in the test culture medium. The control group of the cell viability test is the test culture solution only added the ethanol with the final concentration of 0.1%. In the experimental group, the plasticizer of the 1st example with the concentration of 0.1 mM or 0.3 mM is added to the test culture solution, respectively, and the concentration of the ethanol in the test culture solution of the control group and the experimental group are the same, the test condition is the 37° C. environment containing 5% carbon dioxide placed for 24 hours. After the test finished, each group is tested with MTT assay, the detection wavelength is the optical density at 570 nm (OD570) and the optical density at 650 nm (OD650), and the cell viability is calculated accordingly. The formula for calculating the cell viability is: (the average value of OD570 and OD650 in the experimental group)/(the average value of three repetitions of (the average value of OD570 and OD650 in the control group))×100%. The cell viability is used to determine whether the group has the cytotoxicity, and when the cell viability is more than 70%, it is considered that this group is non-cytotoxic.

[2] = Pyrolysis temperature of the plasticizer; format: physicochemical
Procedure: According to the plasticizer of the present disclosure, when a pyrolysis temperature of the plasticizer is Pt, the following condition can be satisfied: 100° C.≤Pt. Therefore, it is favorable for stabilizing the structure of the plasticizer at the high temperature by the high pyrolysis temperature of the plasticizer. Furthermore, the following condition can be satisfied: 120° C.≤Pt. Furthermore, the following condition can be satisfied: 150° C.≤Pt. Furthermore, the following condition can be satisfied: 170° C.≤Pt. Furthermore, the following condition can be satisfied: 180° C.≤Pt.

Pt (º C.) [2]: 200 º C.
Structure (SMILES): CCC(CC)COC(=O)CC(N)C(=O)OCC(CC)CC (stereo not shown) [1st example, 1,4-bis(2-ethylbutyl) 2-aminobutanedioate]
toxic to the cells ([1]; 0.3 mM): will not be toxic to the cells
cell viability ([1]; plasticizer 0.1 mM): 99.10%
cell viability ([1]; plasticizer 0.3 mM): 81.90%

Reference: US20240218156A1, “PLASTICIZER, PLASTIC COMPOSITION, AND PLASTIC PRODUCT” (LARGAN MEDICAL CO., LTD., priority 2022, published 2024)
